Measured values published in patent publication US20070203060A1, “Casein Derived Peptides And Therapeutic Uses Thereof” (priority 2004, published 2007).
Entries after “also recorded” stand apart in the source; their conditions may differ.

Columns and labels:
[1] = tested on: murine primary bone marrow cells (CFU-GEMM); test: Multipotential colonies (CFU-GEMM) from murine bone marrow cells, colony and differential counts; format: cell-based, mouse; conditions: for Early (E.MK) megakaryocyte formation (in words): 25 μg or more, 14 days; for Early (E.MK) megakaryocyte formation (in words) / increase in total megakaryocyte proliferation over controls: FIG. 21; for increase in total megakaryocyte proliferation over controls: differential count; for megakaryocyte formation and development (in words): 8 days treatment
Procedure: Proliferation of megakaryocytes in multipotential colonies (CFU-GEMM) from murine Bone Marrow cells: Primary bone marrow cells (1×10^5 per ml) from 8-12 week-old C3H/HeJ mice were grown in serum-free methyl cellulose-IMDM medium for 8-9 days at 5% CO2, 95% air, at 37° C. The medium, appropriate for the growth of multipotential colonies (CFU-GEMM), contained 1% BSA (Sigma), 10^−4 M thioglycerol (Sigma), 2.8×10^−4 M human transferrin (TF, Biological industries, Israel), 10% WEHI-CM as a source of IL-3 and 2 units per ml erythropoietin (rhEPO, R & D Systems, Minneapolis). […] They were picked with a micropipette, cytocentrifuged and stained with May-Grunwald-Giemsa for differential counts. At least 700 cells were counted for each preparation. […]

[2] = tested on: platelets of myeloablated, bone marrow transplanted mice; test: Platelet reconstitution in irradiated bone marrow transplant recipient mice; format: in vivo, mouse; conditions: for enhancement of platelet counts compared to control mice: F1 mice, 750 cGy, 1 mg i.v., 10 days post-transplantation; for increase in platelet counts over untreated controls / platelet count: 800 cGy, 4 daily i.p. injections; for increase in platelet counts over untreated controls: 100 μg per mouse
Procedure: Leukocyte and platelet reconstitution in bone marrow transplant recipient mice: BALB/c mice were sub-lethally irradiated at a source to skin distance of 70 cm, dosage of 50 cGy per minute, for a total of 600 cGy. The irradiated mice were reconstituted with syngeneic bone marrow as described above and injected intravenously 24 hours later with 1 mg per animal peptides derived from natural casein, synthetic peptides derived from casein (13-26 amino acids, see Table 3 above), or human serum albumin (controls), following a double-blinded protocol. Leukocyte reconstitution was determined according to cell count in peripheral blood collected at indicated intervals from 6 to 12 days post treatment. Platelet reconstitution was determined by cell count in blood collected from the retro orbital plexus, into EDTA-containing vials, at indicated intervals from day 6 to day 15 post treatment.
In an additional series of experiments, CBA mice were lethally irradiated (900 cGy), reconstituted with BM cells and treated with peptides derived from natural casein or human serum albumin as described above. Platelet reconstitution was assayed as mentioned above.
[…] Platelet reconstitution was assayed at 10 and 12 days post-transplantation.

[3] = tested on: human Peripheral Blood Stem Cells / K562 target cells; test: NK activity of cultured human PBSC (35S release from K562 target cells); format: cell-based
Procedure: From human Peripheral Blood Stem Cells (PBSC): PBSC of G-CSF treated subjects were separated on a FICOLL gradient, washed twice with RPMI-1640 medium containing 10% FCS and glutamine, and seeded into 1.5 ml wells with or without peptides derived from natural casein or synthetic peptides derived from casein, as indicated, (0-500 μg per ml). Following two days incubation the cells were assayed for Natural Killer activity by measuring radioactivity released from ^35S-labeled K562 target cells (NEG-709A, 185.00 MBq, 2.00 mCi EASYTAGth Methionine, L-[^35S] 43.48 TBq per mmol, 1175.0 Ci per mmol, 0.488 ml, Boston USA). Two concentrations of effector cells (2.5×10^5 and 5×10^5 cells per well) were incubated with 5×10^3 target cells per well (effector:target cell ratios of 50:1 and 100:1, respectively) in U-bottomed 96 well tissue culture plates. The cells were incubated for 5 hours at 37° C. in 5% CO2, 95% air and precipitated by 5 minutes centrifugation at 1000 rpm. ^35S release was measured in 50 μl samples of the supernatant liquid.

[4] = tested on: HIV-1 infection of CEM cells; test: Inhibition of in vitro HIV-1 infection of CEM lymphocytes (cell counts, P24 antigen assay); format: cell-based
Procedure: Peptides: Peptides (either peptides derived from natural casein or synthetic peptides derived from casein (2-26 amino acids in length, see table 3) supplied as lyophilized powder were resuspended in RPMI complete medium and added to cell cultures at a final concentrations of 50 to 1000 μg per ml.
Cells: Several types of freshly isolated human cells (primary cells) and cell lines are known to be susceptible to in vitro HIV-1 infection, although essentially any cell displaying even low surface levels of the CD4molecule can be considered a potential target for HIV-1 infection. Two commonly used human cell lines which are highly sensitive for HIV-1 infection were chosen, CEM and Sup-T1.
CEM is a human T4-lymphoblastoid cell line initially derived by G. E. Foley et al. [(1965), Cancer 18:522] from peripheral blood buffy coat of a person with acute lymphoblastic leukemia. These cells were continuously maintained in suspension in medium, and have been used widely for analysis of infectivity, antiviral agents and neutralizing antibodies.
Virus: The HIV virus strain employed was HIV-1IIIB, originally designated HTLV-IIIB. Concentrated culture fluids of peripheral blood from several patients with AIDS or related diseases were used to establish a permanent productive infection in H-9 cells. This subtype B virus has high capacity to replicate in human T-cell lines. Viral titer was 5.38 ng per ml in stock solution.
HIV-1 P^24 antigen capture assay: An HIV-1 P^24 Antigen capture assay kit employed was designed to quantitate the HIV-1 P^24 core antigen, which is proportionally related to the degree of viral production in cells. This kit was purchased from the AIDS Vaccine program of the SAIC-NCI-Frederick Cancer Research Institute, P.O. Box B, Frederick, Md. 21702, USA and included 96 well plates coated with monoclonal antibody to HIV-1 P^24, primary antibody-rabbit anti-HIV P^24 serum, secondary antibody-Goat anti-rabbit-IgG (H+ L) peroxidase conjugated antibody, TMB peroxidase substrate system and lysed HIV-1 P^24 standard. The HIV-1 P^24 antigen capture assay was analyzed by Organon-Technica ELISA reader at 450 nm with a reference at 650 nm.
HIV-1 P^24 antigen capture ELISA: HIV infection was measured with an indirect enzyme immunoassay which detects HIV-1 P^24 core antigens in tissue culture media. Tissue culture supernatant was reacted with primary rabbit anti-HIV-1 P^24 antigen and visualized by peroxidase conjugated goat anti rabbit IgG. The reaction was terminated by adding 4N H2SO4, wherein the intensity of the color developed is proportional to the amount of HIV-1 antigen present in the tissue culture supernatant.
HIV infection of human cultured CD4 cells: For longer incubations, the cells (CEM, Sup-T1) were preincubated with several increasing concentrations of peptides derived from natural casein (50-1000 μg per ml) or synthetic peptides derived from casein (10-500 μg per ml) for 24 (for synthetic and natural peptides) and 48 (only for natural peptides) hours and HIV-1IIIB (45 pg per ml final concentration) was added to each well thereafter. For the shorter incubations (3 hours), HIV-1IIIB was preincubated with the peptides for 3 hours and then added to cells (5000 cells/well) in tissue culture plates. Controls were IF (Infected, cells cultured with HIV-1 and without peptides), UIF (Uninfected, cells cultured without HIV-1 and without peptides) and UIF+Ch (Uninfected+peptides derived from natural casein, cells cultured in the presence of peptides derived from natural casein {50-1000 μg per ml}) to test the effect of peptides derived from natural casein and synthetic peptides derived from casein on cell viability and growth. Cells were counted for viability and proliferation rate on day 7, 10 and day 14 post infection (the day of P^24 antigen culture supernatant harvest). Cells and tissue culture supernatants (media) were harvested and lysed immediately in 1/10 volume of 10% Triton X-100. […]

[5] = tested on: glucose metabolism in NOD mice; test: Intraperitoneal Glucose Tolerance Test (IPGTT) in NOD mice; format: in vivo, mouse; conditions: healthy NOD mice after 25 weeks
Procedure: Intraperitoneal Glucose Tolerance Test (IPGTT): The glucose tolerance test is the definitive method for investigating glucose metabolism and diabetic tendencies in mammals. Twenty five (25) weeks after receiving Synthetic peptides derived from casein, response to a glucose load was assessed with an intraperitoneal glucose tolerance test. Glucose injection consisted of 1 g/kg body weight. Glycemic values were determined from blood drawn prior to test (0 minutes) and 60 minutes after loading.

[6] = tested on: peripheral white blood cells of myeloablated, bone marrow transplanted mice; test: Leukocyte reconstitution in irradiated bone marrow transplant recipient mice; format: in vivo, mouse; conditions: for peripheral white blood cell count: BALB/c, 600 cGy, 1 mg per mouse i.p.; for early leukocyte reconstitution (in words): F1 mice, 750 cGy, 1 mg i.v., 5 and 7 days post-transplantation
[7] = tested on: human bone marrow progenitor cells (CFU-GM); test: CFU-GM colonies from human bone marrow progenitor cells with IL-3 and G-CSF; format: cell-based; conditions: 300 μg/ml, G-CSF and IL-3, 14 days
Procedure: Cells were scored in the macroscopic colonies grown from human bone marrow cells prepared similarly to the CFU-GEMM colonies previously described. Cells were incubated with hematopoietic factors cytokine (IL-3) and colony stimulating factor (G-CSF), and 25 μg or more of synthetic peptides derived from casein: peptide J, representing amino acids 1-22 of α-S1 casein (SEQ ID NO. 21), or β-casein, representing amino acids 193-208 of β-casein (SEQ ID No. 28). Exposure of the human bone marrow progenitor cells to peptides derived from casein was for 14 days. Stimulation of colony formation (CFU) is expressed as the number of myeloid per colonies in 10^5 plated MNCs. Note the synergistic increase (>50% with 100 μg/ml of peptide J, and >30% with 300 μg/ml of synthetic β-casein) in myelocyte formation in cultures exposed to G-CSF, IL-3 and the synthetic peptides derived from β-casein and an N terminal portion of α-S1 casein.
A similar effect of synthetic peptides derived from α-, β- or κ-casein was observed on the proliferation of granulocytes and macrophages from human bone marrow progenitor cells. […] (FIG. 20). Thus, synthetic peptides derived from αS1-, αS2-, β- or κ-casein or combinations thereof are effective in augmenting the effect of granulopoietic factors such as G-CSF on bone marrow hematopoietic progenitor cell differentiation and expansion.

MAIPPKKNQDKTEIPTINTIAS [κ 106-127]
Early (E.MK) megakaryocyte formation (in words) [1]: dramatic effect | increase in total megakaryocyte proliferation over controls [1]: 21% | enhancement of platelet counts compared to control mice ([2]; listed as SEQ ID NO: 30): 26%

RPK [1P]
patients responding (of the 5 tested) ([3]; 25 μg/ml peptide): 3 | patients responding (of the 5 tested) ([3]; 100 μg/ml peptide): 1 | patients responding (of the 5 tested) ([3]; 250 μg/ml peptide): 1 | target cell lysis, fold that of untreated controls ([3]; PBS cells from donors with hematopoietic disease): ≥ 2 fold | HIV-P24 antigen ([4]; 100 μg/ml, 7 days post infection, untreated control 0.52): 0.17 ng P^24 Antigen/ml | HIV-P24 antigen ([4]; 500 μg/ml, 7 days post infection, untreated control 0.52): 0.14 ng P^24 Antigen/ml

RPKHP [3P]
megakaryocyte formation and development (in words) [1]: significant increase | HIV-P24 antigen ([4]; virus pre-treated 3 hours, 10 μg per ml, 7 days post infection, control 0.52): 0.26 ng P^24 Ag per ml | HIV-P24 antigen ([4]; virus pre-treated 3 hours, 25 μg per ml, 7 days post infection, control 0.52): 0.18 ng P^24 Ag per ml

RPKHPI [4P]
megakaryocyte formation and development (in words) [1]: significant increase | increase in platelet counts over untreated controls ([2]; 12 days post transplantation): 29% | platelet count ([2]; 12 days post transplantation): 872000 mL⁻¹ | HIV-P24 antigen (in words) ([4]; virus pre-incubated 3 hours, 7 days post infection): dose dependent reduction | cell counts ([4]; virus pre-treated 3 hours, 250 μg per ml, infected control 1.06×10^6): 1.59×10^6

RPKHPIKHQ [X]
glucose tolerance (IPGT) test result in words [5]: no evidence of abnormal glucose metabolism

RPKHPIKHQGL [2a]
megakaryocyte formation and development (in words) [1]: significant increase

RPKHPIKHQGLP [3a]
megakaryocyte formation and development (in words) [1]: significant increase | increase in platelet counts over untreated controls ([2]; 10 days post transplantation): up to 35.5% | increase in platelet counts over untreated controls ([2]; 12 days post transplantation): up to 13.5% | platelet count ([2]; 10 days post transplantation): 229000 mL⁻¹ | platelet count ([2]; 12 days post transplantation): 622000 mL⁻¹

RPKHPIKHQGLPQEVLN
megakaryocyte formation and development (in words) [1]: significant increase

RPKHPIKHQGLPQEVLNE [F]
megakaryocyte formation and development (in words) [1]: significant increase

RPKHPIKHQGLPQEVLNENL
megakaryocyte formation and development (in words) [1]: significant increase

RPKHPIKHQGLPQEVLNENLL
megakaryocyte formation and development (in words) [1]: significant increase

RPKHPIKHQGLPQEVLNENLLR [J]
Early (E.MK) megakaryocyte formation (in words) [1]: dramatic effect | peripheral white blood cell count ([6]; day 10): 2.74 ×10^6 cells per ml | peripheral white blood cell count ([6]; day 12): 5.20 ×10^6 cells per ml | early leukocyte reconstitution (in words) ([6]; listed as SEQ ID NO: 21): dramatic enhancement; also recorded: strong stimulation

RPKHPIKHQGLPQEVLNENLLRFF
megakaryocyte formation and development (in words) [1]: significant increase

YQEPVLGPVRGPFPII [β 193-208]
Early (E.MK) megakaryocyte formation (in words) [1]: dramatic effect | increase in total megakaryocyte proliferation over controls [1]: 32% | enhancement of granulopoietic stimulating effect of G-CSF (myelocyte formation) ([7]; listed as SEQ ID NO: 28): 30% | enhancement of granulopoietic stimulating effect of G-CSF (myelocyte formation) ([7]; listed as synthetic β-casein): > 30% | early leukocyte reconstitution (in words) ([6]; listed as SEQ ID NO: 28): dramatic enhancement; also recorded: strong stimulation | enhancement of platelet counts compared to control mice ([2]; listed as SEQ ID NO: 28): 32%
